Assay results reported in paper PMC7821884, “BRAF inhibition protects against hearing loss in mice” (Science Advances, 2020).

Legend:
HEI-OC1 cell line = test: Caspase-Glo 3/7 activity screen for protection from cisplatin-induced cell death; assay type: cell-based, mouse; settings: HEI-OC1, 50 μM cisplatin, 22 hours
Procedure: An unbiased screen for compounds protective against cisplatin ototoxicity ([12], [13]) was conducted using the immortalized inner ear cell line HEI-OC1 derived from mouse cochlea ([14]). One hundred sixty-two unique small-molecule kinase-specific inhibitors were screened in dose-response mode for protection from 50 μM cisplatin. A caspase-3/7 activity assay was selected to measure apoptosis using a protocol that quantifies a luminescent product derived from the cleavage of caspase-3/7 substrate (Caspase-Glo 3/7 reagent). One hundred percent luminescence was defined by cells treated with cisplatin alone, and 0% was defined by untreated cells (Fig. 1A, fig. S1, table S1, and dataset in the Supplementary Materials).
In these screens, caspase-3 cleavage was chosen as the end point indicating cisplatin-induced apoptosis, because it allowed the inhibition of cell death to be monitored at the level of any molecular target upstream of caspase-3 cleavage in the HEI-OC1 cell line. Cells were plated at a previously optimized concentration of 1600 cells per well in medium without γ-interferon to limit proliferation and tested against 50 μM cisplatin based on a previous dose–response curve. Tested compounds were dissolved in DMSO before addition to medium with a final DMSO concentration of <0.5%. The screens are described in detail in our previous publications ([12], [13]). […]

[1] = test system: P3-P4 FVB mouse cochlear explants; design: method as in PMID 29514916, PMID 9303151; settings: identical P3 FVB explant model; read-out: IC50, protection from cisplatin in explants; cited from earlier work
[2] = cited from earlier work
[3] = test system: P3-P4 FVB mouse cochlear explants; settings: 150 μM, 24 hours
Procedure: Mouse cochlear explants are widely recognized as an alternative to in vivo cochlear models and pragmatic for focused drug screening ([37]). […] Medium-alone, drug-alone, and cisplatin-alone treatments were used as controls.
P3-P4 FVB mouse cochleae were dissected and maintained in culture on filter inserts in six-well plates with 1 ml of growth medium DMEM (12430-054,Gibco Life Technologies), with 1% FBS (16000-044, Gibco Life Technologies), B-27 supplement (200 μl/500 ml; 17504-44, Gibco Life Technologies), N-2 supplement (100 μl/500 ml; 17502-048, Gibco Life Technologies), and ampicillin (50 μg/ml; A5354-10ML, Sigma-Aldrich) both inside and outside the filter (Millicell, PICM03050, Millipore). […] Cochleae were imaged by confocal microscopy, two 160-μm regions from middle turns were photographed, and the number of intact HCs was counted. Two to five independent cochleae were tested for each experimental condition.

P42 FVB mice = test: Cisplatin-induced hearing loss in adult mice (ABR, OHC counts, pERK); settings: cisplatin 30 mg/kg i.p., alone or combined with dabrafenib
Procedure: As described in Fig. 4A, baseline auditory brainstem response (ABR) thresholds for P42 FVB mice were established 1 week before experimental procedures. […] Animals were allowed 21 days after cisplatin injection to recover, and final ABR thresholds were recorded.
Ten milligrams of cisplatin (479306, Sigma-Aldrich) powder was dissolved in 10 ml of sterile saline (0.9% NaCl) at 37°C for 40 to 60 min. Cisplatin was administered to FVB mice at 30 mg/kg via intraperitoneal injection. One day before cisplatin injection, mice received 1 ml of saline by subcutaneous injection. To ameliorate dehydration after cisplatin injection, 1 ml of warm saline was injected twice per day for at least 7 days or until body weight started to recover. The cages of cisplatin-treated mice were placed on the heating pad for at least 7 days or until body weight began to recover. Fresh mush food was daily given for at least 7 days.
Compounds were dissolved in a mixture of 10% DMSO, 5% Tween 80 (P1754, Sigma-Aldrich), 40% PEG-E-300 (91462-1KG, Sigma-Aldrich), and 45% 0.9% saline.
ABR in mice was measured for left ears as described previously with minor modifications ([13], [34]). In brief, ABR waveforms were recorded in a sound booth (Industrial Acoustic Company) by using subdermal needles positioned in the skull, below the pinna, and at the base of the tail, and the responses were fed into a low-impedance Medusa digital biological amplifier system (RA4L; TDT; 20-dB gain). At each frequency, the stimulus intensity was reduced from 90 to 0 dB in 10-dB steps to determine the threshold decibel SPL when the electrical response was just above the noise floor. ABR waveforms were averaged in response to 500 tone bursts. The recorded signals were filtered by a band-pass filter from 300 Hz to 3 kHz. Pretreatment ABR recordings of adult FVB mice (aged 6 weeks) were acquired 1 week before all treatments, and posttreatment ABR measurements were recorded 21 days after cisplatin treatment or 14 days after noise exposure. ABR threshold was determined by the presence of any of three or more of the five waveform peaks. […] All thresholds and shifts were determined independently by two experimenters for each mouse. Individual ABR wave 1 amplitudes were measured as the difference between the positive peak and the following negative trough.
Cochleae from adult mice were prepared and examined as described previously ([85], [86]). All images were acquired with a confocal microscope (LSM 700 or 710, Zeiss). Samples were stained with phalloidin (A12379 or A12380, Invitrogen) or with antibodies for other markers. The following primary antibodies were used: anti–myosin VI (1:400; 25-6791; Proteus Bioscience), anti–myosin VIIa ([…];138-1-s, Developmental Studies Hybridoma Bank), anti-Tuj1 (1:250; 801201, BioLegend), anti-pERK (1:400; 9101S, Cell Signaling Technology), or anti-Ctbp2 (1:500; 612044, BD Transduction). Anti-rabbit Alexa Fluor 488 (1:400; A11034) and anti-mouse Alexa Fluor 647 (1:400; A31571) secondary antibodies were purchased from Invitrogen. ProLong gold antifade reagent with 4′,6-diamidino-2-phenylindole (P36941, Invitrogen) was used to counterstain nuclei.

[4] = design: method as in PMID 25665007, PMID 25058905, PMID 23044998; settings: cisplatin chemotherapy; cited from earlier work
[5] = design: method as in PMID 25894725, PMID 26655654; settings: cited from earlier work

Work on `Cc1ccc(C(=O)Cn2c3c(sc2=N)CCCC3)cc1` [Pifithrin-α] yielded an IC50 (HEI-OC1 cell line) of 7.7 µM.

For `O=c1c2ccccc2[se]n1-c1ccccc1` [ebselen], the IC50 [1] is given as 10.8 µM.

For `O=S([O-])([O-])=S.[Na+].[Na+]` [STS, sodium thiosulfate], the “lowering of incidence of hearing loss” value ([2]; children with localized standard-risk hepatoblastoma, 6 hours after cisplatin chemotherapy) is listed as 48% and the “survival of treated patients with disseminated tumors” value [2] is listed as “lowered survival rate”.

For `O=C1Cc2c([nH]c3ccc(Br)cc23)-c2ccccc2N1` [kenpaullone], the IC50 [1] is listed as 0.2 µM.

For `CSCC[C@@H](N)C(=O)O` [D-methionine], the IC50 [1] is given as 98.4 µM.

In the case of `N.N.[Cl][Pt][Cl]` [cisplatin], the “OHCs that died with cisplatin” value [3] is listed as roughly 40%, the “survival rate of mice” value (P42 FVB mice) is listed as 50% and the “patients with cancer with hearing loss” value [4] is listed as 40 to 60%.

For `C[C@@H]1C[C@H]2[C@@H]3CCC4=CC(=O)C=C[C@]4(C)[C@@]3(F)[C@@H](O)C[C@]2(C)[C@@]1(O)C(=O)CO` [dexamethasone], the IC50 [1] is given as greater than 0.25 µM and the “effectiveness in treating noise ototoxicity” value [5] is given as “only partially effective”.
